In the NIST ThermoML archive (doi:10.1021/je300941v):

Assay: xn = mol fraction of the nth substance listed
Settings: 101 kPa, Liquid, Vibrating tube method

CCCC[N+]1(C)CCCC1.O=S(=O)([N-]S(=O)(=O)C(F)(F)F)C(F)(F)F + CNC=O
mass density [kg/m3]
Settings | 293.15 K | 298.15 K | 303.15 K | 308.15 K | 313.15 K | 318.15 K | 323.15 K
x1 = 0.0246 | 1055.01 | 1050.43 | 1045.86 | 1041.32 | 1036.71 | 1032 | 1027.24
x1 = 0.0444 | 1087.36 | 1082.72 | 1078.08 | 1073.48 | 1068.79 | 1064.04 | 1059.25
x1 = 0.0743 | 1124.18 | 1119.6 | 1114.93 | 1110.11 | 1105.37 | 1100.74 | 1095.89
x1 = 0.1571 | 1192.03 | 1187.22 | 1182.56 | 1177.83 | 1173.12 | 1168.24 | 1163.34
x1 = 0.2195 | 1227.49 | 1222.75 | 1218 | 1213.28 | 1208.51 | 1203.7 | 1198.78
x1 = 0.2768 | 1253.4 | 1248.66 | 1243.85 | 1239.09 | 1234.35 | 1229.57 | 1224.76
x1 = 0.3721 | 1288.07 | 1283.27 | 1278.56 | 1273.79 | 1269.04 | 1264.27 | 1259.52
x1 = 0.4755 | 1318.98 | 1314.25 | 1309.5 | 1304.78 | 1300.03 | 1295.32 | 1290.63
x1 = 0.588 | 1344.35 | 1339.65 | 1334.96 | 1330.34 | 1325.69 | 1320.95 | 1316.2
x1 = 0.631 | 1352.66 | 1347.99 | 1343.33 | 1338.74 | 1334.09 | 1329.42 | 1324.65
x1 = 0.7045 | 1364.77 | 1360 | 1355.4 | 1350.82 | 1346.19 | 1341.54 | 1336.77
x1 = 0.7807 | 1375.58 | 1370.92 | 1366.37 | 1361.76 | 1357.23 | 1352.53 | 1347.89
x1 = 0.9067 | 1390.15 | 1385.5 | 1380.94 | 1376.4 | 1371.81 | 1367.24 | 1362.53
